The record followed here is patent US20180326022A1, “COMPOSITIONS AND METHODS FOR IMPROVING HEART FUNCTION AND TREATING HEART FAILURE” (The Trustees of the University of Pennsylvania, priority 2017, published 2018).

Holding throughout (assay type): cell-based
In one test the test system is detyrosinated tubulin. In words: Western blotting of cardiomyocyte lysates (TTL, α-, detyr-, tyr-tubulin). To be noted: rat cardiomyocytes; PTL treatment; shTTL; short term EpoY. The procedure: (§1) Viral constructs were permitted to express for 24-72 hours with Moi=100-200. Parthenolide (Fisher Scientific NC9013142) treatment was carried out at room temperature for 2 hours at 10 μM. All experiments were performed within 48 hours of isolation, except those involving shTTL, which were allowed 72 hours to improve knockdown efficiency.
For analysis of proteins expression levels quantitative Western blots were performed using infrared fluorescence imaging on an Odyssey Imager (LI-COR). Cell homogenates were prepared in ice-cold IGEPAL lysis buffer. After 1 freezing cycle lysates were spun at 18,000×g for 5 min. Aliquots of supernatants were mixed with 4× sample buffer (LI-COR, 928-40004) containing 10% BME, boiled for 6 min., and resolved on sodium dodecyl sulfate (SDS)-polyacrylamide gel electrophoresis Tris-glycine gels (Bio-Rad). Proteins were transferred to a membrane on Mini Trans-Blot Cell (Bio-Rad), blocked 1 h in Odyssey Blocking Buffer (TBS) (LI-COR, 927-50000), and probed with the corresponding primary antibody (see list below) for 2 h at room temperature. Membranes were then rinsed with TBST 4 times for 5 min, and incubated with secondary antibodies (below) for 1.5 h at room temperature. Membranes were rinsed again with TBST and then imaged on Odyssey Imager. Image analysis was performed using Image Studio Lite software (LI-COR). Fluorescent band intensity was always normalized to GAPDH loading control. Analysis of human tissue samples for levels of detyrosinated tubulin was performed blinded to the experimental groups.

Test [1] has as its system primary adult rat cardiomyocytes. The experiment in a line: Cell contractility (sarcomere shortening, 1 Hz pacing). To be noted: rat cardiomyocytes, 1 Hz; PTL 10 μM 2 hours. The procedure: as §1
Experiments were performed in custom-fabricated cell chambers (Ionoptix) mounted on an LSM Zeiss 780 inverted confocal microscope using a 40× oil 1.4 NA objective and transmitted light camera (IonOptix MyoCam-S). For contractility assays, cells were maintained in NT solution and electrical field stimulation was provided at 1 Hz with a myopacer (IonOptix MYP100) through platinum electrodes lowered into the bath. Sarcomere length was measured optically by Fourier transform analysis (IonWizard, IonOptix). After 15 s of 1 Hz pacing to achieve steady state, five traces were recorded and analyzed.

Another test has as its system WT myocytes. In words: AFM viscoelasticity, WT mouse myocytes. To be noted: WT + PTL. The procedure: Animal care and procedures were approved and performed in accordance with the standards set forth by the University of Pennsylvania Institutional Animal Care and Use Committee and the Guide for the Care and Use of Laboratory Animals published by the US National Institutes of Health. Desmin knockout mice and WT littermates were provided by Dr. Robert Bloch and have been previously characterized (36). Experiments were performed blinded to genotype.
as §1
The elastic modulus of isolated cardiomyocytes was measured using AFM indentation. Optical microscopy and AFM were performed simultaneously using an MFP3D AFM (Asylum Research) combined with an inverted Nikon TE-2000U microscope equipped with a Nikon 100×, 1.49 NA objective. TTL expression was determined by dsRED fluorescence captured via 532 nm laser excitation (CrystaLaser) and a CCD camera (Cascade-512B, Photometrics) at 900 ms exposure time controlled through the NIS Elements software package. […] Modulus characterization of myocytes was performed using 4.26 μm radius (R below) SiO2 microparticle epoxied to SiN cantilevers with nominal spring constant 0.03 N/m (CP-PNPS-SiO-A, Nano And More, USA). Cantilever spring constants were manually calibrated in air by thermal vibrations using the MFP3D prior to each experiment using a clean glass substrate. Inverse optical lever sensitivity was determined in myocyte buffer solution prior to each round of measurements.
E is the elastic modulus, υ, is the cell Poisson ratio and δ is the indentation depth. Transverse compression of the cardiomyocyte is performed over a range of indentation speeds and the indentation speed is divided by the total indentation depth to obtain an effective indentation rate, f. […]

The subject of the next test is human myocytes. In words: Cell contractility of human myocytes (0.5 Hz). The procedure: Viable myocytes were concentrated by gravity (5-7 min) and supernatant was aspirated to remove dead cells. Myocytes were resuspended in NT solution containing 1 mM Ca^2+ and concentrated by gravity (5-7 min) again. Cardiomyocytes used acutely were maintained in NT solution for up to 6 hours. Myocytes were treated with 10 μM parthenolide (Fisher Scientific NC9013142 or Sigma P0667) or 10 μM colchicine (Sigma) at room temperature in NT solution for 2 hours. Experiments were performed within 6 hours of isolation, except for those involving viral transduction in cultured cells.
MatTek glass bottom dish was coated 5 μl of 0.5 mg/ml laminin and air dried for 10 min. Culture medium was F-10 (1×) Nutrient Mixture (Ham) [+] L-Glutamine (Life Technologies, 11550-043) supplemented with insulin-transferrin selenium-X (Gibco, 51500-056), 20 mM HEPES, 1 μg/μl primocin (Invivogen, ant-pm-1), 0.4 mM extra CaCl2, 5% FBS, 25 μM cytochalasin D (Cayman, 11330). Viable myocytes were concentrated and a proper amount of medium was added in culture so that neighboring cells were not in direct contact. Viral constructs were permitted to express for 48 hours with Moi=100-200. Adenoviral TTL-IRES-dsRed and EMTB-3x GFP were transduced in human myocytes as previously performed in rat myocytes. Myocytes were replenished with fresh warm medium without cytochalasin D before calcium and contractility measurements.
Experiments were performed as described in Example 1 with some modification. Contractility is measured in custom-fabricated cell chambers (Ionoptix) mounted on an LSM Zeiss 880 inverted confocal microscope using a 40× oil 1.4 NA objective and transmitted light camera (IonOptix MyoCam-S). Myoyctes were maintained in NT solution (for freshly isolated myocytes) or culture medium (without cytochalasin D, for cultured myocytes) at room temperature and electrical field stimulation was provided at 0.5 Hz with a myopacer (IonOptix MYP100) through platinum electrodes lowered into the bath. Sarcomere length was measured optically by Fourier transform analysis (IonWizard, IonOptix). After 10-30 s of 0.5 Hz pacing to achieve steady state, five traces were recorded and analyzed. If not specified, contractility data was obtained at room temperature.
To test whether the contractile improvement over MT destabilization remains under more physiological conditions, both 0.5 Hz and 1 Hz contractions at 37 C were recorded and analyzed in a small subset of isolated human myocytes (1 NF and 1 failing heart, FIG. 29C).

Turning to `C=C1C(=O)O[C@H]2[C@H]1CC/C(C)=C/CC[C@@]1(C)O[C@@H]21` [PTL, 4,5-epoxygermacra-1(10),11(13)-dien-12,6-olactone], in the test on detyrosinated tubulin, the “alpha / total tubulin levels (western blot)” value is reported as “no significant change” and the “detyrosinated tubulin (western blot)” value is recorded as “significant drop”. Besides, in test [1], the “Resting SL (μm)” value turned out to be 1.803 μm, the “Vmax (μm/s)” value is reported as −5.35 μm/s, the “Vmin (μm/s)” value was 4.28 μm/s and the “ΔSL (μm)” value is 0.201 μm. Further, in the test on WT myocytes, the “E1 (Pa)” value worked out at 533.11 Pa, the “E2 (Pa)” value is recorded as 627.4 Pa and the “η (Pa*s)” value stood at 32.9 Pa*s. Besides, in the test with human myocytes (NF human myocytes, 10 μM PTL), the “late phase of relaxation” value is “slightly prolonging”. Also, the “restoration of lost function (contractile velocities vs NF benchmark)” value with human myocytes (failing human myocytes) is approximately 50%. The “shortening amplitude and velocity, speed of relaxation” value in the test with human myocytes (failing human myocytes, 10 μM, 2 hours) is given as “robustly improved”.
